In ChEMBL document CHEMBL4680089, “Development of Allosteric Hydrazide-Containing Class I Histone Deacetylase Inhibitors for Use in Acute Myeloid Leukemia” (J Med Chem, 2016):
The source made the active and inactive calls. No cut-off for these calls is given here.

What was measured:
[1] = system: MV4-11; test: cells; type: functional, cell-based; conditions: Homo sapiens, MV4-11, 48 h
Description: Cytotoxicity against human MV4-11 cells assessed as reduction in cell viability incubated for 48 hrs by Cell-titer-blue cell viability assay

[2] = Cytotoxicity against human PBMC assessed as reduction in cell viability at 10 nM incubated for 24 hrs by Cell-titer-blue cell viability assay; conditions: 0.01 µM
[3] = Drug metabolism in human liver microsomes assessed as o-glucuronidated metabolite formation in absence of UDP glucuronic acid incubated for 12 hrs at 37 degC by electrospray ionization liquid chromatography mass spectrometry; type: ADME, Microsome
[4] = Drug metabolism in human liver microsomes assessed as o-glucuronidated metabolite formation in presence of UDP glucuronic acid incubated for 12 hrs at 37 degC by electrospray ionization liquid chromatography mass spectrometry; type: ADME, Microsome
[5] = biological target: T1, Protein deacetylase HDAC6 (Homo sapiens) (UniProt Q9UBN7); conditions: MV4-11, dose 100.0 nM, time 24.0 hrs
T1 sequence (whole entry): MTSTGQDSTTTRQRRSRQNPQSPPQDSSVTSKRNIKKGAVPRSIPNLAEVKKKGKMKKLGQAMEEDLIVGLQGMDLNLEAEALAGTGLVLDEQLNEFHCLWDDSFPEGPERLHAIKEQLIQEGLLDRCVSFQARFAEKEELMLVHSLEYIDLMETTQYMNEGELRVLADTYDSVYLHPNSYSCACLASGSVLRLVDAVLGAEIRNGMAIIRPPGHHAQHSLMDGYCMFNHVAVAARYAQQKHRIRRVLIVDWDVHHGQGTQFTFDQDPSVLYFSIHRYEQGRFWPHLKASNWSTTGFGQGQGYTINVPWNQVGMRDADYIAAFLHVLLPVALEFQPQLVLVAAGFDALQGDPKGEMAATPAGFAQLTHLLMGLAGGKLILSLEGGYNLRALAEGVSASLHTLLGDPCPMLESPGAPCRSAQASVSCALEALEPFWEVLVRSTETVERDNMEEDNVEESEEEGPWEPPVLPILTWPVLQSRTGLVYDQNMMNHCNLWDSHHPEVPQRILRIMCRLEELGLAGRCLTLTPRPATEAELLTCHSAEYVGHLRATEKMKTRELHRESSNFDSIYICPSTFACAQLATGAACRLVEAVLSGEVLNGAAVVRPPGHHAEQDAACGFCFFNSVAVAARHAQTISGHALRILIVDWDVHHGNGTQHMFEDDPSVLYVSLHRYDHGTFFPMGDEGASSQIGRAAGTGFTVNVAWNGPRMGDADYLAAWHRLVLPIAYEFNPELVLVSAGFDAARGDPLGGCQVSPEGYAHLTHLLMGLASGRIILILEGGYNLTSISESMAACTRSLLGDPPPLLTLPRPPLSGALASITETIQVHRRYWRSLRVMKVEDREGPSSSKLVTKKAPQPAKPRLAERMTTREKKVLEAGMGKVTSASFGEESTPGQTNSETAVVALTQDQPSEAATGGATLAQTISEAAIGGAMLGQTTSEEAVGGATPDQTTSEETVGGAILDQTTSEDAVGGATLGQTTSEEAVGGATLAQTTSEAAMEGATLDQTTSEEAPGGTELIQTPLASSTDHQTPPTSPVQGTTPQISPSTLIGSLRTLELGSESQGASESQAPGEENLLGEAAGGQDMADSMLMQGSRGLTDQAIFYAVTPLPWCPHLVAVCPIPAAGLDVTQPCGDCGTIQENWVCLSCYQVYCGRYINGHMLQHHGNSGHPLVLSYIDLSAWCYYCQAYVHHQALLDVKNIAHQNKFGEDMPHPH

[6] = biological target: T2, Class 1 histone deacetylase (Homo sapiens) (UniProt Q13547+O15379+Q92769+Q9BY41); conditions: time 24.0 hrs
T2 sequence (O15379 whole entry, looked up): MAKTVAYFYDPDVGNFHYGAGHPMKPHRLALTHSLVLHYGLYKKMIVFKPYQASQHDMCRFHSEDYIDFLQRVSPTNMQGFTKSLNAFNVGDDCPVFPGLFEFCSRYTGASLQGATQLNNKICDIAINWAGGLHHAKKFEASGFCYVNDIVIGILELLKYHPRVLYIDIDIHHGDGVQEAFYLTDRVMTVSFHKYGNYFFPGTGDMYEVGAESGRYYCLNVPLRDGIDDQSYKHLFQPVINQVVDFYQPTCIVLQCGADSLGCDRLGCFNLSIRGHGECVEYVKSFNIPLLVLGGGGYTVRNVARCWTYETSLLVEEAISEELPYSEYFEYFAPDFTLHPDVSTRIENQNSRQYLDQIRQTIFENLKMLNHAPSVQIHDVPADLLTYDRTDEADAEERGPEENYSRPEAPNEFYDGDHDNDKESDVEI
T2 sequence (Q13547 whole entry, looked up): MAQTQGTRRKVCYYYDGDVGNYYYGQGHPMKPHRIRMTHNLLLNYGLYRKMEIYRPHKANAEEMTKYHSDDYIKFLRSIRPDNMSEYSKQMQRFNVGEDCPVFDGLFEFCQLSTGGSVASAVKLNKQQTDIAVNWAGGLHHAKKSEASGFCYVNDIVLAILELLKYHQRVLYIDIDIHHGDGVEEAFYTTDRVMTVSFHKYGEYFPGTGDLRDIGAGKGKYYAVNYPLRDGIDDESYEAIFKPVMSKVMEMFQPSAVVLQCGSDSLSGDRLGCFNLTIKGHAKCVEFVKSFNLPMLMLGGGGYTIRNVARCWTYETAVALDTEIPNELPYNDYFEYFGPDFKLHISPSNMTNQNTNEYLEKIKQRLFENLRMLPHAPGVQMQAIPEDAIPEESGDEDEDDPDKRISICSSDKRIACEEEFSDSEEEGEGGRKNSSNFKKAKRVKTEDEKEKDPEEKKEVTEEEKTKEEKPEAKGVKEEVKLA
T2 sequence (Q92769 whole entry, looked up): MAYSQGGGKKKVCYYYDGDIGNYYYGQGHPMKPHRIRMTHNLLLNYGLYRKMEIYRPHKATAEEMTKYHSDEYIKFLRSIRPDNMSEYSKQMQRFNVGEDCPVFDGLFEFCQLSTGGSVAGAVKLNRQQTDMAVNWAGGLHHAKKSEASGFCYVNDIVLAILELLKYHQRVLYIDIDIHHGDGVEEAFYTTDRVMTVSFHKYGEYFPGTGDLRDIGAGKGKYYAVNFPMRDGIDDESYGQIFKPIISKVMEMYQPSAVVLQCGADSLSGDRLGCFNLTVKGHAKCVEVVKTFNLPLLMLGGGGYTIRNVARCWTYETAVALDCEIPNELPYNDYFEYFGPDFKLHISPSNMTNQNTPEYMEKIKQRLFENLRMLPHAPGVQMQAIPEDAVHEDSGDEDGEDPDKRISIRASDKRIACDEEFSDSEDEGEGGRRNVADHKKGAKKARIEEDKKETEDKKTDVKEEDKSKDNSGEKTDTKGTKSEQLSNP
T2 sequence (Q9BY41 whole entry, looked up): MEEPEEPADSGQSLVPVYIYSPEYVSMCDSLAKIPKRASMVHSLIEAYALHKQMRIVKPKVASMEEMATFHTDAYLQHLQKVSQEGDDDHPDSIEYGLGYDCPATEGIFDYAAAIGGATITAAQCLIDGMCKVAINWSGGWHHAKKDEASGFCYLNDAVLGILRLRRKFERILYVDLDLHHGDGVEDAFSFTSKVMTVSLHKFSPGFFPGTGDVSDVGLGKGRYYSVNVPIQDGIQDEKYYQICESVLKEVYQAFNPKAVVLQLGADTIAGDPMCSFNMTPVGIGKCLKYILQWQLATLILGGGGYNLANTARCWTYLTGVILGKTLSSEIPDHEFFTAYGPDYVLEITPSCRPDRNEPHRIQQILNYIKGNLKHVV

[7] = biological target: T2, Class 1 histone deacetylase (Homo sapiens); conditions: time 24.0 hrs; remark: listed apart in the source
[8] = system: HEK293; test: Cytotoxicity against HEK293 cells assessed as reduction in cell viability incubated for 48 hrs by Cell-titer-blue cell viability assay; type: cell-based; conditions: human, hek293, 48 h
[9] = Cytotoxicity against human PBMC assessed as reduction in cell viability incubated for 24 hrs by Cell-titer-blue cell viability assay relative to panobinostat
[10] = system: MOLM-14; test: Cytotoxicity against human MOLM-14 cells assessed as reduction in cell viability incubated for 48 hrs by Cell-titer-blue cell viability assay; type: functional, cell-based; conditions: MOLM-14, 48 h
[11] = system: RS4-11; test: Cytotoxicity against human RS4-11 cells assessed as reduction in cell viability incubated for 48 hrs by Cell-titer-blue cell viability assay; type: functional, cell-based; conditions: RS4-11, 48 h
[12] = Drug metabolism in human liver microsomes assessed as compound reduction in absence of UDP glucuronic acid incubated for 12 hrs at 37 degC by electrospray ionization liquid chromatography mass spectrometry; type: ADME, Microsome
[13] = system: RPMI-8226; test: Cytotoxicity against human RPMI-8226 cells assessed as reduction in cell viability incubated for 48 hrs by Cell-titer-blue cell viability assay; type: functional, cell-based; conditions: RPMI-8226, 48 h
[14] = system: HL-60; test: Cytotoxicity against human HL-60 cells assessed as reduction in cell viability incubated for 48 hrs by Cell-titer-blue cell viability assay; type: functional, cell-based; conditions: HL-60, 48 h
[15] = system: K562; test: Cytotoxicity against human K562 cells assessed as reduction in cell viability incubated for 48 hrs by Cell-titer-blue cell viability assay; type: functional, cell-based; conditions: K562, 48 h
[16] = biological target: Histone deacetylase 3 (Homo sapiens, UniProt O15379); test: Allosteric inhibition of C-terminal His-tagged recombinant human HDAC3 expressed in Sf9 cells pre-incubated for 2 hrs before acetylated lysine-aminomethyl coumarin-BOC addition and measured after 2 hrs by fluorescence based assay
Sequence of Histone deacetylase 3 (O15379 whole entry): as the sequence (O15379 whole entry, looked up) above

[17] = MV4-11, filed as negative allosteric modulator, dose 100.0 nM

Row | Structure (SMILES) | EC50 [1] | Drug metabolism [3] | Drug metabolism [4] | inhibition [5] | inhibition [6, 17] | inhibition [7, 17] | IC50 [16] | Activity [8] | other results
1 | Nc1ccccc1NC(=O)c1ccc(CNC(=O)OCc2cccnc2)cc1 [ENTINOSTAT] | < 30 nM |  |  |  |  |  |  |  | 
2 | Cc1[nH]c2ccccc2c1CCNCc1ccc(/C=C/C(=O)NO)cc1 [PANOBINOSTAT] | < 30 nM |  |  |  |  |  |  |  | Activity [2]: Toxic
3 | O=C(CCCCCCC(=O)Nc1ccccc1)NO [VORINOSTAT] |  | Metabolite_Notdetected | Metabolite_Detected |  |  |  |  |  | 
4 | CCCNNC(=O)c1ccc(CNC(=O)/C=C/c2ccccc2)cc1 | 36.4 nM | Metabolite_Notdetected | Metabolite_Notdetected | inactive | Active | Active |  | Non-Toxic | EC50 [10]: 76.6 nM; EC50 [11]: 152 nM; Drug metabolism [12]: Metabolite_Detected; EC50 [13]: > 10000 nM; EC50 [14]: > 10000 nM; EC50 [15]: 2160 nM; Activity [9]: Non-Toxic
5 | CCCCNNC(=O)c1cccc2ccccc12 |  |  |  |  |  |  | > 10000 nM |  | 
6 | CC(C)NNC(=O)c1ccc(CNC(=O)c2ccccc2)cc1 |  |  |  |  |  |  | > 10000 nM |  | 

Continued, in another order:

Row | EC50 [1] | Drug metabolism [3] | Drug metabolism [4] | inhibition [5] | inhibition [6, 17] | inhibition [7, 17] | IC50 [16] | Structure (SMILES) | Activity [8] | other results
7 |  | Metabolite_Notdetected | Metabolite_Notdetected | inactive | Active | Active |  | CCCNNC(=O)c1ccc(CNC(=O)c2ccccc2)cc1 | Non-Toxic | Activity [9]: Non-Toxic
8 |  |  |  |  |  |  | > 10000 nM | CC/C=N/NC(=O)c1ccc(CNC(=O)c2ccccc2)cc1 |  | inhibition ([6]; MV4-11, dose 100.0 nM): inactive; inhibition ([7]; MV4-11, dose 100.0 nM): inactive
9 |  |  |  |  |  |  | 1550 nM | C/C=C/CNNC(=O)c1ccc(CNC(=O)c2ccccc2)cc1 |  | 
10 |  | Metabolite_Notdetected | Metabolite_Notdetected | inactive | Active | Active |  | CCCCNNC(=O)c1ccc(CNC(=O)c2ccccc2)cc1 | Non-Toxic | 
